# Results as given in US9593136B2 (priority 2011, dated 2017).
# Like-named read-outs stand apart in the source and are kept apart here.
# How the values were obtained:
# [1] = molecular target: M. tuberculosis Dxr (Mycobacterium tuberculosis, UniProt P9WNS1); test: biochemical
# [2] = system: Mtb H37Rv (ATCC 27294); test: microbe, parasite or virus in culture; assay type: cell-based, Mycobacterium tuberculosis; conditions: Mycobacterium tuberculosis
# [3] = read-out: Mtb MIC (ug/mL) (7H9)
# [4] = read-out: Mtb MIC (ug/mL) (GAST)
# M. tuberculosis Dxr, sequence (P9WNS1 whole entry, looked up): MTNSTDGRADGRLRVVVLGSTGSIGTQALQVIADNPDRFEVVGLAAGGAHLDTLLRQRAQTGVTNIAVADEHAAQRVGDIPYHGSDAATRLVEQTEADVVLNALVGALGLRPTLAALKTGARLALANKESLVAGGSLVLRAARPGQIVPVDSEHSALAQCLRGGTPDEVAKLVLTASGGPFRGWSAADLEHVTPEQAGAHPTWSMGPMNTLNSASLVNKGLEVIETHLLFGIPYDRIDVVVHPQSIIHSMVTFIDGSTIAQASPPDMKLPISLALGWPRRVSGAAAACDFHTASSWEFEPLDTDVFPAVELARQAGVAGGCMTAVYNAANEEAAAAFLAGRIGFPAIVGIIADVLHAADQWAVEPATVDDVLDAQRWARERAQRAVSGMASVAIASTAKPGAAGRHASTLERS
Compound,IC50 ([1]; Mtb Dxr IC50 (ug/mL)) [µM],MIC ([2]; read-out: Mtb MIC (ug/mL)) [µg/mL],also measured
CC(=O)N(CCCP(=O)(O)O)OCc1ccc(-c2ccccc2)cc1 [GSJ74],68.6,25 to 50,
CC(=O)N(CCCP(=O)(O)O)OCC1CCCCC1 [GSJ75],212,> 200,
CC(=O)N(CCCP(=O)(O)O)OCc1ccc(C(C)C)cc1 [GSJ76],54,,"MIC [2, 3]: 200 µg/mL; MIC [2, 4]: 25 µg/mL"
CC(=O)N(CCCP(=O)(O)O)OCc1ccc2ccccc2c1 [GSJ77],47.7,≥ 200,
CC(=O)N(CCCP(=O)(O)O)OCCc1ccccc1 [GSJ78],103,> 200,
CCOP(=O)(CCCN(OCCc1ccc(O)cc1)C(C)=O)OCC [GSJ80],,200 to 400,
CCOP(=O)(CCCN(OCCc1ccc(C)cc1)C(C)=O)OCC [GSJ82],,,"MIC [2, 3]: ≥ 400 µg/mL"
CC(=O)N(CCCP(=O)(OCOC(=O)C(C)(C)C)OCOC(=O)C(C)(C)C)OCCCCc1ccccc1 [GSJ89],,,"MIC [2, 3]: 12.5 µg/mL; MIC [2, 4]: 6.25 to 12.5 µg/mL"
CC(=O)N(CCCP(=O)(OCOC(=O)c1ccccc1)OCOC(=O)c1ccccc1)OCCCCc1ccccc1 [GSJ92],,,"MIC [2, 3]: 25 µg/mL"
CC(=O)N(CCCP(=O)(OCOC(=O)C(C)(C)C)OCOC(=O)C(C)(C)C)OCc1ccc(C(C)C)cc1 [GSJ96],,12.5,
CC(=O)N(CCCP(=O)(OCOC(=O)C(C)(C)C)OCOC(=O)C(C)(C)C)OCc1ccc(-c2ccccc2)cc1 [GSJ97],,12.5,
CCOP(=O)(CCCN(OCc1cccc(-c2ccccc2)c1)C(C)=O)OCC [GSJ100],,100,
CCOP(=O)(CCCN(OCc1ccccc1-c1ccccc1)C(C)=O)OCC [GSJ101],,200 to 400,
CCOP(=O)(CCCN(OCc1ccc(Cl)c(Cl)c1)C(C)=O)OCC [GSJ102],,200,
CCOP(=O)(CCCN(OCc1cccc(OC(F)(F)F)c1)C(C)=O)OCC [GSJ109],,400,
CCOP(=O)(CCCN(OCc1ccc(OC(F)(F)F)cc1)C(C)=O)OCC [GSJ110],,400,
CCOP(=O)(CCCN(OCc1cc(OC)cc(OC)c1)C(C)=O)OCC [GSJ111],,> 400,
CCOP(=O)(CCCN(OCc1ccc(-c2ccccc2C(=O)OC)cc1)C(C)=O)OCC [GSJ112],,400,
CCOP(=O)(CCCN(OCc1ccc(Br)cc1)C(C)=O)OCC [GSJ113],,400,
CCOP(=O)(CCCN(OCc1ccc(C)cc1)C(C)=O)OCC [GSJ114],,> 400,
CCOP(=O)(CCCN(OCc1cccc(Br)c1)C(C)=O)OCC [GSJ115],,400,
CCOP(=O)(CCCN(OCc1cccc2ccccc12)C(C)=O)OCC [GSJ116],,400,
O=C(CCc1ccccc1)N(O)CCCP(=O)(O)O [GSJ 51],2.92,> 200,IC50 ([1]; IC50 (uM)): 2.72 µM; IC50 ([1]; IC50 (ug/ml)): 2.92 µM
O=C(CCCc1ccccc1)N(O)CCCP(=O)(O)O [GSJ 52],3.35,> 200,IC50 ([1]; IC50 (uM)): 3.12 µM; IC50 ([1]; IC50 (ug/ml)): 3.35 µM
O=C(Cc1ccccc1)N(O)CCCP(=O)(O)O [GSJ 55],8.09,> 200,IC50 ([1]; IC50 (uM)): 7.49 µM; IC50 ([1]; IC50 (ug/ml)): 8.09 µM
O=C(NCCCP(=O)(O)O)c1ccc2ccccc2c1 [GSJ 56],,> 200,"remaining activity at 100 µg/mL ([1]; read-out: Mtb Dxr, value in parentheses (percent enzyme activity remaining)): 90%; remaining activity at 100 µg/mL ([1]; read-out: percent enzyme activity remaining at 100 ug/ml compound): 90%"
CC(=O)N(CCCP(=O)(O)O)OC(C)c1ccccc1 (centres unmarked) [GSJ 63],173,> 200,IC50 ([1]; IC50 (uM)): 161 µM; IC50 ([1]; IC50 (ug/ml)): 173 µM
"NNC(=O)c1ccncc1 [Isoniazid, reference compound]",,,MIC ([2]; read-out: MIC 7H9 (μg/mL)): 0.04 µg/mL; MIC ([2]; read-out: MIC GAST/Fe (μg/mL)): 0.02 µg/mL
